{
  "source": "patent US8349318B2",
  "about": "“Use of specifically engineered enzymes to enhance the efficacy of prodrugs” (The Board of Trustees of the University of Illinois, priority 2008, dated 2013)",
  "key": {"dCK R104L/D133A": {"molecular_target": "dCK R104L/D133A (Homo sapiens, UniProt P27707, D133A/R104L)", "sequence (P27707 whole entry R104L/D133A)": "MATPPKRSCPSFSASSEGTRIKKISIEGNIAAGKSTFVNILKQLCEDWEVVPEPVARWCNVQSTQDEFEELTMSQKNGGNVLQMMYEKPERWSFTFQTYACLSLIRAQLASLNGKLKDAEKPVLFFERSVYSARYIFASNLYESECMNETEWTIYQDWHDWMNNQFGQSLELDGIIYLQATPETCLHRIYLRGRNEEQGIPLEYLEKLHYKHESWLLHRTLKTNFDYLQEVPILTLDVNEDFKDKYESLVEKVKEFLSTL", "test": "Kinetic characterization of nucleoside phosphorylation by dCK R104L/D133A", "settings": "Table 9"}, "R104Q-D133A dCK": {"molecular_target": "T1, R104Q-D133A dCK (Homo sapiens, UniProt P27707, D133A/R104Q)", "T1 construct": "made in house", "T1 sequence (P27707 whole entry R104Q/D133A)": "as the sequence (P27707 whole entry R104L/D133A) above, with L104Q counted along it", "test": "Kinetic assay of nucleoside phosphorylation by R104Q-D133A dCK", "format": "biochemical", "settings": "nucleoside 200 uM"}},
  "data": [
    {"smiles": "Cc1cn([C@H]2C[C@H](O)[C@@H](CO)O2)c(=O)[nH]c1=O", "note": "[D-dT, D-thymidine]", "values": [
      {"measurement": "kcat, R104L/D133A", "setting": "dCK R104L/D133A", "value": "3.20 ± 0.07", "unit": "s⁻¹"},
      {"measurement": "Km", "setting": "dCK R104L/D133A; read-out: Km, R104L/D133A", "value": "24.3 ± 3.6", "unit": "µM"},
      {"measurement": "kcat R104Q-D133A dCK (with 1 mM ATP as donor)", "setting": "R104Q-D133A dCK", "value": 0.15, "unit": "s⁻¹"}
    ]}
  ]
}
